Test results as given in patent US10202339B2, “Therapeutic compounds and compositions” (AGIOS PHARMACEUTICALS, INC., priority 2012, dated 2019).

The molecules below were run against IDH2 R140Q (Homo sapiens (Human), UniProt P48735, R140Q) (assay: IDH2 R140Q enzymatic cofactor depletion assay (diaphorase/resazurin)). Settings: IDH2 R140Q enzyme, one hour preincubation with compound, one hour reaction; read-out: Enz R140Q.
Format: biochemical
Procedure, shortened: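 Enzyme preincubated with compound 1 h at room temperature, then reaction started with 50 μM NADPH and 6.3 mM α-KG and run 1 h at room temperature. Remaining NADPH measured by diaphorase (36 μg/ml)/resazurin (60 μM) stop mix, fluorescence read at Ex544/Em590 after 1 min.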

Sequence of IDH2 R140Q (P48735 40-452 R140Q): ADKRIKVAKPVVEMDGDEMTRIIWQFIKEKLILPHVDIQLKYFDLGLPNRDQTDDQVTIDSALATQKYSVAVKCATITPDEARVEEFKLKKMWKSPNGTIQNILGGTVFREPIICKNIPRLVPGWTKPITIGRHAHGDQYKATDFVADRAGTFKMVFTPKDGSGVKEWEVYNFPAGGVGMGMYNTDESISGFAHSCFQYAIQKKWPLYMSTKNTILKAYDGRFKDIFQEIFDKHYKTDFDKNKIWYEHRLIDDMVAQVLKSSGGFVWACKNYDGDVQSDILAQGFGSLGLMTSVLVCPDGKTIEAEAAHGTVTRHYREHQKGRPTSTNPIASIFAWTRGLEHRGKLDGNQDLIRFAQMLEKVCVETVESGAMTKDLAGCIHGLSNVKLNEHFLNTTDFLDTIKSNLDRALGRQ

IC50 | Compound
1000 to 10000 nM | O=C(Nc1cccc(C(F)(F)F)c1)Nc1cc(S(=O)(=O)NCC(F)(F)F)ccc1C1=CCOCC1 [Compound 157, 4-(3,6-dihydro-2H-pyran-4-yl)-N-(2,2,2-trifluoroethyl)-3-(3-(3-(trifluoromethyl)phenyl)ureido)benzene sulfonamide]
100 to 1000 nM | O=C(Nc1ccc(F)c(Cl)c1)Nc1cc(S(=O)(=O)NCC(F)(F)F)ccc1C1=CCOCC1 [Compound 158, 3-(3-(3-chloro-4-fluorophenyl)ureido)-4-(3,6-dihydro-2H-pyran-4-yl)-N-(2,2,2-trifluoroethyl)benzene sulfonamide]
100 to 1000 nM | O=C(Nc1ccc(F)c(C(F)(F)F)c1)Nc1cc(S(=O)(=O)NCC(F)(F)F)ccc1C1=CCOCC1 [Compound 159, 4-(3,6-dihydro-2H-pyran-4-yl)-3-(3-(4-fluoro-3-(trifluoromethyl)phenyl)ureido)-N-(2,2,2-trifluoroethyl)benzenesulfonamide]
100 to 1000 nM | O=C(Nc1cccc(C(F)(F)F)c1)Nc1cc(S(=O)(=O)Nc2ccccc2)ccc1C1=CCOCC1 [Compound 161, 4-(3,6-dihydro-2H-pyran-4-yl)-N-phenyl-3-(3-(3-(trifluoromethyl)phenyl)ureido)benzene sulfonamide]
100 to 1000 nM | O=C(Nc1cccc(C(F)(F)F)c1)Nc1cc(S(=O)(=O)NCC2CC2)ccc1C1CCCCO1 (stereo not drawn) [Compound 162, N-(cyclopropylmethyl)-4-(tetrahydro-2H-pyran-2-yl)-3-(3-(3-(trifluoromethyl)phenyl)ureido)benzene sulfonamide]
100 to 1000 nM | O=C(Nc1cccc(Cl)c1)Nc1cc(S(=O)(=O)NCC2CC2)ccc1C1CCCCO1 (stereo not drawn) [Compound 163, 3-(3-(3-chlorophenyl)ureido)-N-(cyclopropylmethyl)-4-(tetrahydro-2H-pyran-2-yl)benzenesulfonamide]
100 to 1000 nM | O=C(Nc1ccc(F)c(C(F)(F)F)c1)Nc1cc(S(=O)(=O)NCC2CC2)ccc1C1CCCCO1 (stereo not drawn) [Compound 164, N-(cyclopropylmethyl)-3-(3-(4-fluoro-3-(trifluoromethyl)phenyl)ureido)-4-(tetrahydro-2H-pyran-2-yl)benzenesulfonamide]
100 to 1000 nM | O=C(Nc1cccc(C(F)(F)F)c1)Nc1cc(S(=O)(=O)NCC(F)(F)F)ccc1C1CCCCO1 (stereo not drawn) [Compound 165, 4-(tetrahydro-2H-pyran-2-yl)-N-(2,2,2-trifluoroethyl)-3-(3-(3-(trifluoromethyl)phenyl)ureido)benzene sulfonamide]
100 to 1000 nM | O=C(Nc1ccc(F)c(Cl)c1)Nc1cc(S(=O)(=O)NCC(F)(F)F)ccc1C1CCCCO1 (stereo not drawn) [Compound 166, 3-(3-(3-chloro-4-fluorophenyl)ureido)-4-(tetrahydro-2H-pyran-2-yl)-N-(2,2,2-trifluoroethyl)benzene sulfonamide]
100 to 1000 nM | O=C(Nc1ccc(F)c(C(F)(F)F)c1)Nc1cc(S(=O)(=O)NCC(F)(F)F)ccc1C1CCCCO1 (stereo not drawn) [Compound 167, 3-(3-(4-fluoro-3-(trifluoromethyl)phenyl)ureido)-4-(tetrahydro-2H-pyran-2-yl)-N-(2,2,2-trifluoroethyl)benzenesulfonamide]
100 to 1000 nM | O=C(Nc1cccc(Cl)c1)Nc1cc(S(=O)(=O)NCC(F)(F)F)ccc1C1CCCCO1 (stereo not drawn) [Compound 168, 3-(3-(3-chlorophenyl)ureido)-4-(tetrahydro-2H-pyran-2-yl)-N-(2,2,2-trifluoroethyl)benzenesulfonamide]
100 to 1000 nM | O=C(Nc1ncc(Cl)s1)Nc1cc(S(=O)(=O)NCC(F)(F)F)ccc1C1CCCCO1 (stereo not drawn) [Compound 169, 3-(3-(5-chlorothiazol-2-yl)ureido)-4-(tetrahydro-2H-pyran-2-yl)-N-(2,2,2-trifluoroethyl)benzene sulfonamide]
100 to 1000 nM | O=C(Nc1cccc(C(F)(F)F)c1)Nc1cc(S(=O)(=O)Nc2ccccc2)ccc1C1CCCCO1 (stereo not drawn) [Compound 170, N-phenyl-4-(tetrahydro-2H-pyran-2-yl)-3-(3-(3-(trifluoromethyl)phenyl)ureido)benzenesulfonamide]
1000 to 10000 nM | O=C(Nc1ncc(Cl)s1)Nc1cc(S(=O)(=O)NCC(F)(F)F)ccc1C1CCOC1 (stereo not drawn) [Compound 172, 3-(3-(5-chlorothiazol-2-yl)ureido)-4-(tetrahydrofuran-3-yl)-N-(2,2,2-trifluoroethyl)benzene sulfonamide]
100 to 1000 nM | O=C(Nc1cccc(C(F)(F)F)c1)Nc1cc(S(=O)(=O)NCC(F)(F)F)ccc1C1CCCO1 (stereo not drawn) [Compound 173, 4-(tetrahydrofuran-2-yl)-N-(2,2,2-trifluoroethyl)-3-(3-(3-(trifluoromethyl)phenyl)ureido)benzene sulfonamide]
1000 to 10000 nM | O=C(Nc1cc(C(F)(F)F)ccn1)Nc1cc(S(=O)(=O)NCC(F)(F)F)ccc1C1CCCO1 (stereo not drawn) [Compound 174, 4-(tetrahydrofuran-2-yl)-N-(2,2,2-trifluoroethyl)-3-(3-(4-(trifluoromethyl)pyridin-2-yl)ureido)benzene sulfonamide]
100 to 1000 nM | O=C(Nc1cccc(C(F)(F)F)c1)Nc1cc(S(=O)(=O)NCC(F)(F)F)ccc1OCC1CC1 [Compound 175, 4-(cyclopropylmethoxy)-N-(2,2,2-trifluoroethyl)-3-(3-(3-(trifluoromethyl)phenyl)ureido)benzenesulfonamide]
100 to 1000 nM | O=C(Nc1cccc(C(F)(F)F)c1)Nc1cc(S(=O)(=O)NCC(F)(F)F)ccc1OCC1CCCO1 (stereo not drawn) [Compound 176, 4-((tetrahydrofuran-2-yl)methoxy)-N-(2,2,2-trifluoroethyl)-3-(3-(3-(trifluoromethyl)phenyl)ureido)benzenesulfonamide]
< 100 nM | CCOc1ccc(S(=O)(=O)NCC(F)(F)F)cc1NC(=O)Nc1cccc(C(F)(F)F)c1 [Compound 177, 4-ethoxy-N-(2,2,2-trifluoroethyl)-3-(3-(3-(trifluoromethyl)phenyl)ureido)benzenesulfonamide]
100 to 1000 nM | O=C(Nc1cccc(C(F)(F)F)c1)Nc1cc(S(=O)(=O)NCC(F)(F)F)ccc1OC1CCOCC1 [Compound 178, 4-((tetrahydro-2H-pyran-4-yl)oxy)-N-(2,2,2-trifluoroethyl)-3-(3-(3-(trifluoromethyl)phenyl)ureido)benzenesulfonamide]
100 to 1000 nM | N#CC1(NS(=O)(=O)c2ccc(OCC3CC3)c(NC(=O)Nc3cccc(C(F)(F)F)c3)c2)CC1 [Compound 179, N-(1-cyanocyclopropyl)-4-(cyclopropylmethoxy)-3-(3-(3-(trifluoromethyl)phenyl)ureido)benzene sulfonamide]
100 to 1000 nM | CCOc1ccc(S(=O)(=O)NC2COC2)cc1NC(=O)Nc1cccc(C(F)(F)F)c1 [Compound 180, 4-ethoxy-N-(oxetan-3-yl)-3-(3-(3-(trifluoromethyl)phenyl)ureido)benzenesulfonamide]
100 to 1000 nM | CCOc1ccc(S(=O)(=O)NC2(C#N)CC2)cc1NC(=O)Nc1cccc(C(F)(F)F)c1 [Compound 181, N-(1-cyanocyclopropyl)-4-ethoxy-3-(3-(3-(trifluoromethyl)phenyl)ureido)benzenesulfonamide]
100 to 1000 nM | O=C(Nc1cccc(C(F)(F)F)c1)Nc1cc(S(=O)(=O)NC2COC2)ccc1OCC1CC1 [Compound 183, 4-(cyclopropylmethoxy)-N-(oxetan-3-yl)-3-(3-(3-(trifluoromethyl)phenyl)ureido)benzenesulfonamide]
